Test results reported in PMC7588595, “Small-molecule active pharmaceutical ingredients of approved cancer therapeutics inhibit human aspartate/asparagine-β-hydroxylase” (Bioorganic & Medicinal Chemistry, 2020).

What follows are molecules tested against T1, human AspH (His6-AspH315–758) (Homo sapiens, UniProt Q12797) (assay: SPE-MS AspH inhibition assay (hFX-CP101-119 substrate hydroxylation)). Conditions: AspH-inhibitor screening, 384-well Plate 1.
T1 construct: N-Terminally His6-tagged human AspH315–758 (His6-AspH315–758) was produced in Escherichia coli BL21 (DE3) cells; made in house; host or cells: Escherichia coli BL21 (DE3), pET-28a(+) vector
T1 sequence (Q12797 315-758): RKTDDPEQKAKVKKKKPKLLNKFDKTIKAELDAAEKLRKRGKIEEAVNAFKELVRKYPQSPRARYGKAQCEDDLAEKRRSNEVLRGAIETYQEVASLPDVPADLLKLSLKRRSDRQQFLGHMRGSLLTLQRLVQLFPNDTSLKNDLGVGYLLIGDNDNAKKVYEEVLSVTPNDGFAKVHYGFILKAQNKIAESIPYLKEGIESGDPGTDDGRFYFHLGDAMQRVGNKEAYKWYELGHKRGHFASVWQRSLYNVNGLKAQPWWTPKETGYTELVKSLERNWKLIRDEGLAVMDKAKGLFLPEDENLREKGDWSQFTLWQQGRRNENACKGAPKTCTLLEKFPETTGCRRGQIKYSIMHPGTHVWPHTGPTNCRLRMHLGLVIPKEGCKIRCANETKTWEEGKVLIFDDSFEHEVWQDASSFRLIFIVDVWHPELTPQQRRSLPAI
Assay type: biochemical

Compared with `Cn1cc(C[C@@H](N)C(=O)O)c2ccccc21` [1-methyl-D-tryptophan, 95%], `C[C@@H](C(=O)O)c1ccc(-c2ccccc2)c(F)c1` [(R)-Flurbiprofen (Tarenflurbil)] is higher in “Plate 1 (% inhibition)” value: 6.32% for the first, 10.59% for the second.

Compared with `COc1cc2c(cc1O)CC[C@@H]1[C@@H]2CC[C@]2(C)[C@@H](O)CC[C@@H]12` [2-methoxyestradiol (Panzem)], `COc1cc(O)c2c(c1)/C=C/C[C@H](O)[C@H](O)C(=O)/C=C\C[C@H](C)OC2=O` [(5Z)-7-Oxozeaenol] is higher in “Plate 1 (% inhibition)” value: 5.63% for the first, 21.38% for the second.

Going from `CC/C(=C(\c1ccc(O)cc1)c1ccc(OCCN(C)C)cc1)c1ccccc1` [4-hydroxytamoxifen] to `COc1ccc(S(=O)(=O)Nc2cccnc2Nc2ccc(O)cc2)cc1` [ABT-751], the “Plate 1 (% inhibition)” value rises from -45.98% to 4.88%.

First: C=CCNC1=C2C[C@@H](C)C[C@H](OC)[C@H](O)[C@@H](C)/C=C(\C)[C@H](OC(N)=O)[C@@H](OC)/C=C\C=C(/C)C(=O)NC(=CC1=O)C2=O [17-AAG (Tanespimycin, Geldanamycin)]
Second: CO[C@H]1/C=C\C=C(/C)C(=O)NC2=CC(=O)C(NCCN(C)C)=C(C[C@@H](C)C[C@H](OC)[C@H](O)[C@@H](C)/C=C(\C)[C@@H]1OC(N)=O)C2=O [17-DMAG (Alvespimycin)]
The “Plate 1 (% inhibition)” value of the first is lower: -8.89% for the first, -4.95% for the second.

Going from `CC1(C)CCC(c2ccc(Cl)cc2)=C(CN2CCN(c3ccc(C(=O)NS(=O)(=O)c4ccc(N[C@H](CCN5CCOCC5)CSc5ccccc5)c(S(=O)(=O)C(F)(F)F)c4)cc3)CC2)C1` [ABT-263 (Navitoclax)] to `Cc1ccc(C(=O)Nc2ccc(CN3CCN(C)CC3)c(C(F)(F)F)c2)cc1C#Cc1cnc2cccnn12` [AP24534 (Ponatinib)], the “Plate 1 (% inhibition)” value falls from 90.19% to -64.76%.

First: Cc1ccc(F)c(NC(=O)Nc2ccc(-c3cccc4[nH]nc(N)c34)cc2)c1 [ABT-869_Linifanib]
Second: CC(C)(C)c1cc(NC(=O)Nc2ccc(-c3cn4c(n3)sc3cc(OCCN5CCOCC5)ccc34)cc2)no1 [AC220_Quizartinib]
The “Plate 1 (% inhibition)” value of the first is higher: 24.64% for the first, -19.26% for the second.

Compared with `C[C@]1(c2nc3c(C(N)=O)cccc3[nH]2)CCCN1` [ABT-888 (Veliparib)], `CNCc1ccc(-c2[nH]c3cc(F)cc4c3c2CCNC4=O)cc1` [AG-014699_Rucaparib] is higher in “Plate 1 (% inhibition)” value: 6.01% for the first, 17.02% for the second.

Same assay, conditions: AspH-inhibitor screening, 384-well Plate 1, substrate conversion

Going from `Cn1cc(C[C@@H](N)C(=O)O)c2ccccc21` [1-methyl-D-tryptophan, 95%] to `C[C@@H](C(=O)O)c1ccc(-c2ccccc2)c(F)c1` [(R)-Flurbiprofen (Tarenflurbil)], the “Plate 1 (% conversion)” value falls from 46.83% to 44.86%.

Compared with `COc1cc2c(cc1O)CC[C@@H]1[C@@H]2CC[C@]2(C)[C@@H](O)CC[C@@H]12` [2-methoxyestradiol (Panzem)], `COc1cc(O)c2c(c1)/C=C/C[C@H](O)[C@H](O)C(=O)/C=C\C[C@H](C)OC2=O` [(5Z)-7-Oxozeaenol] is lower in “Plate 1 (% conversion)” value: 47.15% for the first, 39.88% for the second.

Going from `CC/C(=C(\c1ccc(O)cc1)c1ccc(OCCN(C)C)cc1)c1ccccc1` [4-hydroxytamoxifen] to `COc1ccc(S(=O)(=O)Nc2cccnc2Nc2ccc(O)cc2)cc1` [ABT-751], the “Plate 1 (% conversion)” value falls from 70.98% to 47.50%.

Going from `C=CCNC1=C2C[C@@H](C)C[C@H](OC)[C@H](O)[C@@H](C)/C=C(\C)[C@H](OC(N)=O)[C@@H](OC)/C=C\C=C(/C)C(=O)NC(=CC1=O)C2=O` [17-AAG (Tanespimycin, Geldanamycin)] to `CO[C@H]1/C=C\C=C(/C)C(=O)NC2=CC(=O)C(NCCN(C)C)=C(C[C@@H](C)C[C@H](OC)[C@H](O)[C@@H](C)/C=C(\C)[C@@H]1OC(N)=O)C2=O` [17-DMAG (Alvespimycin)], the “Plate 1 (% conversion)” value falls from 53.86% to 52.04%.

Going from `CC1(C)CCC(c2ccc(Cl)cc2)=C(CN2CCN(c3ccc(C(=O)NS(=O)(=O)c4ccc(N[C@H](CCN5CCOCC5)CSc5ccccc5)c(S(=O)(=O)C(F)(F)F)c4)cc3)CC2)C1` [ABT-263 (Navitoclax)] to `Cc1ccc(C(=O)Nc2ccc(CN3CCN(C)CC3)c(C(F)(F)F)c2)cc1C#Cc1cnc2cccnn12` [AP24534 (Ponatinib)], the “Plate 1 (% conversion)” value rises from 8.10% to 79.66%.

First: Cc1ccc(F)c(NC(=O)Nc2ccc(-c3cccc4[nH]nc(N)c34)cc2)c1 [ABT-869_Linifanib]
Second: CC(C)(C)c1cc(NC(=O)Nc2ccc(-c3cn4c(n3)sc3cc(OCCN5CCOCC5)ccc34)cc2)no1 [AC220_Quizartinib]
The “Plate 1 (% conversion)” value of the first is lower: 38.37% for the first, 58.64% for the second.

Compared with `C[C@]1(c2nc3c(C(N)=O)cccc3[nH]2)CCCN1` [ABT-888 (Veliparib)], `CNCc1ccc(-c2[nH]c3cc(F)cc4c3c2CCNC4=O)cc1` [AG-014699_Rucaparib] is lower in “Plate 1 (% conversion)” value: 46.97% for the first, 41.89% for the second.

Same assay, conditions: AspH-inhibitor screening, Plate 1-duplicate

Compared with `Cn1cc(C[C@@H](N)C(=O)O)c2ccccc21` [1-methyl-D-tryptophan, 95%], `C[C@@H](C(=O)O)c1ccc(-c2ccccc2)c(F)c1` [(R)-Flurbiprofen (Tarenflurbil)] is higher in “Plate 1-duplicate (% inhibition)” value: 9.06% for the first, 16.18% for the second.

Going from `COc1cc2c(cc1O)CC[C@@H]1[C@@H]2CC[C@]2(C)[C@@H](O)CC[C@@H]12` [2-methoxyestradiol (Panzem)] to `COc1cc(O)c2c(c1)/C=C/C[C@H](O)[C@H](O)C(=O)/C=C\C[C@H](C)OC2=O` [(5Z)-7-Oxozeaenol], the “Plate 1-duplicate (% inhibition)” value rises from 3.64% to 23.66%.

Compared with `CC/C(=C(\c1ccc(O)cc1)c1ccc(OCCN(C)C)cc1)c1ccccc1` [4-hydroxytamoxifen], `COc1ccc(S(=O)(=O)Nc2cccnc2Nc2ccc(O)cc2)cc1` [ABT-751] is higher in “Plate 1-duplicate (% inhibition)” value: -42.66% for the first, 8.62% for the second.

First: C=CCNC1=C2C[C@@H](C)C[C@H](OC)[C@H](O)[C@@H](C)/C=C(\C)[C@H](OC(N)=O)[C@@H](OC)/C=C\C=C(/C)C(=O)NC(=CC1=O)C2=O [17-AAG (Tanespimycin, Geldanamycin)]
Second: CO[C@H]1/C=C\C=C(/C)C(=O)NC2=CC(=O)C(NCCN(C)C)=C(C[C@@H](C)C[C@H](OC)[C@H](O)[C@@H](C)/C=C(\C)[C@@H]1OC(N)=O)C2=O [17-DMAG (Alvespimycin)]
The “Plate 1-duplicate (% inhibition)” value of the first is lower: -13.53% for the first, -6.36% for the second.

First: CC1(C)CCC(c2ccc(Cl)cc2)=C(CN2CCN(c3ccc(C(=O)NS(=O)(=O)c4ccc(N[C@H](CCN5CCOCC5)CSc5ccccc5)c(S(=O)(=O)C(F)(F)F)c4)cc3)CC2)C1 [ABT-263 (Navitoclax)]
Second: Cc1ccc(C(=O)Nc2ccc(CN3CCN(C)CC3)c(C(F)(F)F)c2)cc1C#Cc1cnc2cccnn12 [AP24534 (Ponatinib)]
The “Plate 1-duplicate (% inhibition)” value of the first is higher: 90.05% for the first, -35.27% for the second.

First: Cc1ccc(F)c(NC(=O)Nc2ccc(-c3cccc4[nH]nc(N)c34)cc2)c1 [ABT-869_Linifanib]
Second: CC(C)(C)c1cc(NC(=O)Nc2ccc(-c3cn4c(n3)sc3cc(OCCN5CCOCC5)ccc34)cc2)no1 [AC220_Quizartinib]
The “Plate 1-duplicate (% inhibition)” value of the first is higher: 34.65% for the first, -18.68% for the second.

Compared with `C[C@]1(c2nc3c(C(N)=O)cccc3[nH]2)CCCN1` [ABT-888 (Veliparib)], `CNCc1ccc(-c2[nH]c3cc(F)cc4c3c2CCNC4=O)cc1` [AG-014699_Rucaparib] is higher in “Plate 1-duplicate (% inhibition)” value: 4.15% for the first, 9.37% for the second.

Same assay, conditions: AspH-inhibitor screening, Plate 1-duplicate, substrate conversion

Compared with `Cn1cc(C[C@@H](N)C(=O)O)c2ccccc21` [1-methyl-D-tryptophan, 95%], `C[C@@H](C(=O)O)c1ccc(-c2ccccc2)c(F)c1` [(R)-Flurbiprofen (Tarenflurbil)] is lower in “Plate 1-duplicate (% conversion)” value: 47.55% for the first, 44.01% for the second.

Compared with `COc1cc2c(cc1O)CC[C@@H]1[C@@H]2CC[C@]2(C)[C@@H](O)CC[C@@H]12` [2-methoxyestradiol (Panzem)], `COc1cc(O)c2c(c1)/C=C/C[C@H](O)[C@H](O)C(=O)/C=C\C[C@H](C)OC2=O` [(5Z)-7-Oxozeaenol] is lower in “Plate 1-duplicate (% conversion)” value: 50.24% for the first, 40.31% for the second.

Going from `CC/C(=C(\c1ccc(O)cc1)c1ccc(OCCN(C)C)cc1)c1ccccc1` [4-hydroxytamoxifen] to `COc1ccc(S(=O)(=O)Nc2cccnc2Nc2ccc(O)cc2)cc1` [ABT-751], the “Plate 1-duplicate (% conversion)” value falls from 73.20% to 47.77%.

Compared with `C=CCNC1=C2C[C@@H](C)C[C@H](OC)[C@H](O)[C@@H](C)/C=C(\C)[C@H](OC(N)=O)[C@@H](OC)/C=C\C=C(/C)C(=O)NC(=CC1=O)C2=O` [17-AAG (Tanespimycin, Geldanamycin)], `CO[C@H]1/C=C\C=C(/C)C(=O)NC2=CC(=O)C(NCCN(C)C)=C(C[C@@H](C)C[C@H](OC)[C@H](O)[C@@H](C)/C=C(\C)[C@@H]1OC(N)=O)C2=O` [17-DMAG (Alvespimycin)] is lower in “Plate 1-duplicate (% conversion)” value: 58.75% for the first, 55.19% for the second.

Going from `CC1(C)CCC(c2ccc(Cl)cc2)=C(CN2CCN(c3ccc(C(=O)NS(=O)(=O)c4ccc(N[C@H](CCN5CCOCC5)CSc5ccccc5)c(S(=O)(=O)C(F)(F)F)c4)cc3)CC2)C1` [ABT-263 (Navitoclax)] to `Cc1ccc(C(=O)Nc2ccc(CN3CCN(C)CC3)c(C(F)(F)F)c2)cc1C#Cc1cnc2cccnn12` [AP24534 (Ponatinib)], the “Plate 1-duplicate (% conversion)” value rises from 7.38% to 69.54%.

First: Cc1ccc(F)c(NC(=O)Nc2ccc(-c3cccc4[nH]nc(N)c34)cc2)c1 [ABT-869_Linifanib]
Second: CC(C)(C)c1cc(NC(=O)Nc2ccc(-c3cn4c(n3)sc3cc(OCCN5CCOCC5)ccc34)cc2)no1 [AC220_Quizartinib]
The “Plate 1-duplicate (% conversion)” value of the first is lower: 34.86% for the first, 61.31% for the second.

First: C[C@]1(c2nc3c(C(N)=O)cccc3[nH]2)CCCN1 [ABT-888 (Veliparib)]
Second: CNCc1ccc(-c2[nH]c3cc(F)cc4c3c2CCNC4=O)cc1 [AG-014699_Rucaparib]
The “Plate 1-duplicate (% conversion)” value of the first is higher: 49.98% for the first, 47.39% for the second.
